Key:
Assay type in all cases: functional
Conditions in all cases: read-out: Activity
U-251 = experiment: Cytotoxicity against human U-251 cells assessed as cell viability at 10 uM incubated for 48 hrs by sulforhodamine B assay relative to control
HCC 2998 = experiment: Cytotoxicity against human HCC 2998 cells assessed as cell viability at 10 uM incubated for 48 hrs by sulforhodamine B assay relative to control
MOLT-4 = experiment: Cytotoxicity against human MOLT-4 cells assessed as cell viability at 10 uM incubated for 48 hrs by sulforhodamine B assay relative to control
OVCAR-3 = experiment: Cytotoxicity against human OVCAR-3 cells assessed as cell viability at 10 uM incubated for 48 hrs by sulforhodamine B assay relative to control
HOP-62 = experiment: Cytotoxicity against human HOP-62 cells assessed as cell viability at 10 uM incubated for 48 hrs by sulforhodamine B assay relative to control
HOP-92 = experiment: Cytotoxicity against human HOP-92 cells assessed as cell viability at 10 uM incubated for 48 hrs by sulforhodamine B assay relative to control
NCI-H522 = experiment: Cytotoxicity against human NCI-H522 cells assessed as cell viability at 10 uM incubated for 48 hrs by sulforhodamine B assay relative to control
COLO 205 = experiment: Cytotoxicity against human COLO 205 cells assessed as cell viability at 10 uM incubated for 48 hrs by sulforhodamine B assay relative to control
HCT-116 = experiment: Cytotoxicity against human HCT-116 cells assessed as cell viability at 10 uM incubated for 48 hrs by sulforhodamine B assay relative to control
OVCAR-8 = experiment: Cytotoxicity against human OVCAR-8 cells assessed as cell viability at 10 uM incubated for 48 hrs by sulforhodamine B assay relative to control
CAKI-1 = experiment: Cytotoxicity against human CAKI-1 cells assessed as cell viability at 10 uM incubated for 48 hrs by sulforhodamine B assay relative to control
SK-OV-3 = experiment: Cytotoxicity against human SK-OV-3 cells assessed as cell viability at 10 uM incubated for 48 hrs by sulforhodamine B assay relative to control
EKVX = experiment: Cytotoxicity against human EKVX cells assessed as cell viability at 10 uM incubated for 48 hrs by sulforhodamine B assay relative to control
786-0 = experiment: Cytotoxicity against human 786-0 cells assessed as cell viability at 10 uM incubated for 48 hrs by sulforhodamine B assay relative to control
SNB-19 = experiment: Cytotoxicity against human SNB-19 cells assessed as cell viability at 10 uM incubated for 48 hrs by sulforhodamine B assay relative to control
OVCAR-5 = experiment: Cytotoxicity against human OVCAR-5 cells assessed as cell viability at 10 uM incubated for 48 hrs by sulforhodamine B assay relative to control
SN12C = experiment: Cytotoxicity against human SN12C cells assessed as cell viability at 10 uM incubated for 48 hrs by sulforhodamine B assay relative to control
UO-31 = experiment: Cytotoxicity against human UO-31 cells assessed as cell viability at 10 uM incubated for 48 hrs by sulforhodamine B assay relative to control
SW-620 = experiment: Cytotoxicity against human SW-620 cells assessed as cell viability at 10 uM incubated for 48 hrs by sulforhodamine B assay relative to control
SK-MEL-5 = experiment: Cytotoxicity against human SK-MEL-5 cells assessed as cell viability at 10 uM incubated for 48 hrs by sulforhodamine B assay relative to control
UACC-62 = experiment: Cytotoxicity against human UACC-62 cells assessed as cell viability at 10 uM incubated for 48 hrs by sulforhodamine B assay relative to control
M14 = experiment: Cytotoxicity against human M14 cells assessed as cell viability at 10 uM incubated for 48 hrs by sulforhodamine B assay relative to control
K562 = experiment: Cytotoxicity against human K562 cells assessed as cell viability at 10 uM incubated for 48 hrs by sulforhodamine B assay relative to control
UACC-257 = experiment: Cytotoxicity against human UACC-257 cells assessed as cell viability at 10 uM incubated for 48 hrs by sulforhodamine B assay relative to control
CCRF-CEM = experiment: Cytotoxicity against human CCRF-CEM cells assessed as cell viability at 10 uM incubated for 48 hrs by sulforhodamine B assay relative to control
ACHN = experiment: Cytotoxicity against human ACHN cells assessed as cell viability at 10 uM incubated for 48 hrs by sulforhodamine B assay relative to control
BT-549 = experiment: Cytotoxicity against human BT-549 cells assessed as cell viability at 10 uM incubated for 48 hrs by sulforhodamine B assay relative to control
TK-10 = experiment: Cytotoxicity against human TK-10 cells assessed as cell viability at 10 uM incubated for 48 hrs by sulforhodamine B assay relative to control
NCI-H23 = experiment: Cytotoxicity against human NCI-H23 cells assessed as cell viability at 10 uM incubated for 48 hrs by sulforhodamine B assay relative to control
SF-268 = experiment: Cytotoxicity against human SF-268 cells assessed as cell viability at 10 uM incubated for 48 hrs by sulforhodamine B assay relative to control
MDA-MB-435 = experiment: Cytotoxicity against human MDA-MB-435 cells assessed as cell viability at 10 uM incubated for 48 hrs by sulforhodamine B assay relative to control
PC-3 = experiment: Cytotoxicity against human PC-3 cells assessed as cell viability at 10 uM incubated for 48 hrs by sulforhodamine B assay relative to control
SF-295 = experiment: Cytotoxicity against human SF-295 cells assessed as cell viability at 10 uM incubated for 48 hrs by sulforhodamine B assay relative to control
OVCAR-4 = experiment: Cytotoxicity against human OVCAR-4 cells assessed as cell viability at 10 uM incubated for 48 hrs by sulforhodamine B assay relative to control
SNB-75 = experiment: Cytotoxicity against human SNB-75 cells assessed as cell viability at 10 uM incubated for 48 hrs by sulforhodamine B assay relative to control
RPMI-8226 = experiment: Cytotoxicity against human RPMI-8226 cells assessed as cell viability at 10 uM incubated for 48 hrs by sulforhodamine B assay relative to control
KM12 = experiment: Cytotoxicity against human KM12 cells assessed as cell viability at 10 uM incubated for 48 hrs by sulforhodamine B assay relative to control
NCI-H322M = experiment: Cytotoxicity against human NCI-H322M cells assessed as cell viability at 10 uM incubated for 48 hrs by sulforhodamine B assay relative to control
Malme-3M = experiment: Cytotoxicity against human Malme-3M cells assessed as cell viability at 10 uM incubated for 48 hrs by sulforhodamine B assay relative to control
IGROV-1 = experiment: Cytotoxicity against human IGROV-1 cells assessed as cell viability at 10 uM incubated for 48 hrs by sulforhodamine B assay relative to control
NCI/ADR-RES = experiment: Cytotoxicity against human NCI/ADR-RES cells assessed as cell viability at 10 uM incubated for 48 hrs by sulforhodamine B assay relative to control

Cc1ccc(S(=O)(=O)NCCCNc2nccc(-c3c(-c4cccc(F)c4)nc4sccn34)n2)cc1
viability at 10 µM (U-251): 82.2%
viability at 10 µM (HCC 2998): 98.2%
viability at 10 µM (MOLT-4): 53.5%
viability at 10 µM (OVCAR-3): 89%
viability at 10 µM (HOP-62): 101%
viability at 10 µM (HOP-92): 112%
viability at 10 µM (NCI-H522): 70.8%
viability at 10 µM (COLO 205): 55.5%
viability at 10 µM (HCT-116): 49.6%
viability at 10 µM (OVCAR-8): 60.3%
viability at 10 µM (CAKI-1): 46.9%
viability at 10 µM (SK-OV-3): 75.2%
viability at 10 µM (EKVX): 78.1%
viability at 10 µM (786-0): 78.4%
viability at 10 µM (SNB-19): 92.2%
viability at 10 µM (OVCAR-5): 111%
viability at 10 µM (SN12C): 70.5%
viability at 10 µM (UO-31): 33.8%
viability at 10 µM (SW-620): 79.4%
viability at 10 µM (SK-MEL-5): 57.3%
viability at 10 µM (UACC-62): 47.8%
viability at 10 µM (M14): 80.7%
viability at 10 µM (K562): 52%
viability at 10 µM (UACC-257): 121%
viability at 10 µM (CCRF-CEM): 62.7%
viability at 10 µM (ACHN): 65.5%
viability at 10 µM (BT-549): 84.5%
viability at 10 µM (TK-10): 99.4%
viability at 10 µM (NCI-H23): 96.2%
viability at 10 µM (SF-268): 65.9%
viability at 10 µM (MDA-MB-435): 48.8%
viability at 10 µM (PC-3): 67.7%
viability at 10 µM (SF-295): 84.1%
viability at 10 µM (OVCAR-4): 66.2%
viability at 10 µM (SNB-75): 98.7%
viability at 10 µM (RPMI-8226): 68.2%
viability at 10 µM (KM12): 67.3%
viability at 10 µM (NCI-H322M): 89.6%
viability at 10 µM (Malme-3M): 116%
viability at 10 µM (IGROV-1): 37.8%
viability at 10 µM (NCI/ADR-RES): 79.7%

O=S(=O)(NCCCNc1nccc(-c2c(-c3cccc(F)c3)nc3sccn23)n1)c1ccc(F)cc1
viability at 10 µM (U-251): 90.6%
viability at 10 µM (HCC 2998): 116%
viability at 10 µM (MOLT-4): 47.1%
viability at 10 µM (OVCAR-3): 83.5%
viability at 10 µM (HOP-62): 101%
viability at 10 µM (HOP-92): 102%
viability at 10 µM (NCI-H522): 54%
viability at 10 µM (COLO 205): 43.7%
viability at 10 µM (HCT-116): 59.4%
viability at 10 µM (OVCAR-8): 49.8%
viability at 10 µM (CAKI-1): 57.8%
viability at 10 µM (SK-OV-3): 81.6%
viability at 10 µM (EKVX): 80.4%
viability at 10 µM (786-0): 73.6%
viability at 10 µM (SNB-19): 95.9%
viability at 10 µM (OVCAR-5): 130%
viability at 10 µM (SN12C): 71.5%
viability at 10 µM (UO-31): 38.8%
viability at 10 µM (SW-620): 106%
viability at 10 µM (SK-MEL-5): 47.3%
viability at 10 µM (UACC-62): 35.4%
viability at 10 µM (M14): 59.4%
viability at 10 µM (K562): 41.6%
viability at 10 µM (UACC-257): 112%
viability at 10 µM (CCRF-CEM): 53.7%
viability at 10 µM (ACHN): 64.2%
viability at 10 µM (BT-549): 79.9%
viability at 10 µM (TK-10): 99.7%
viability at 10 µM (NCI-H23): 83.7%
viability at 10 µM (SF-268): 73.9%
viability at 10 µM (MDA-MB-435): 50.4%
viability at 10 µM (PC-3): 58.9%
viability at 10 µM (SF-295): 92.7%
viability at 10 µM (OVCAR-4): 65.7%
viability at 10 µM (SNB-75): 98.5%
viability at 10 µM (RPMI-8226): 51%
viability at 10 µM (KM12): 62.7%
viability at 10 µM (NCI-H322M): 100%
viability at 10 µM (Malme-3M): 102%
viability at 10 µM (IGROV-1): 36.9%
viability at 10 µM (NCI/ADR-RES): 60%

— ChEMBL document CHEMBL4665642, “Anticancer profile of newly synthesized BRAF inhibitors possess 5-(pyrimidin-4-yl)imidazo[2,1-b]thiazole scaffold” (Bioorg Med Chem, 2019)
